Our source for the IC50 values is patent publication US20230044787A1, “TRICYCLE DIHYDROIMIDAZOPYRIMIDONE DERIVATIVE, PREPARATION METHOD THEREOF, PHARMACEUTICAL COMPOSITION AND USE THEREOF” (priority 2019, published 2023).

pIC50: −log10 of the molar value.

The target of the first test is T1, Lp-PLA2 (Homo sapiens, UniProt Q13093).
T1 construct: aliquoted and thawed 40 μL of pooled human plasma was previously added; from tissue; host or cells: pooled human plasma
T1 sequence (Q13093 22-441): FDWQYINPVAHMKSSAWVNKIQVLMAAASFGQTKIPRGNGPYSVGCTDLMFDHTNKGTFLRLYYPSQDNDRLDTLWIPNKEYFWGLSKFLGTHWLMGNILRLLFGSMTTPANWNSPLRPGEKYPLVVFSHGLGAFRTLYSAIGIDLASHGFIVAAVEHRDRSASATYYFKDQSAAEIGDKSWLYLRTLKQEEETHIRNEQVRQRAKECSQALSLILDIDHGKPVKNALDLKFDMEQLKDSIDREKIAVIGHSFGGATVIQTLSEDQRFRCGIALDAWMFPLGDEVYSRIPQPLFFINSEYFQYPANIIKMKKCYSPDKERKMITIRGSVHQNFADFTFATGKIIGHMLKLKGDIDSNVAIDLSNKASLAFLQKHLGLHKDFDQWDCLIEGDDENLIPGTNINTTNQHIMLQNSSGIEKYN
Briefly: Lipoprotein-associated phospholipase A2 (Lp-PLA2) human plasma assay (Thio-PAF assay). Particulars: Comparison of activity data (I); pooled human plasma, 2-thio-PAF substrate, 30-min pre-incubation. The format is biochemical.
Regarding `O=c1nc(OCc2cc(F)c(F)c(F)c2)cc2n1CC1COCCN21` (racemic) [Corresponding racemate of Example 123 in WO2016011930A1, reference compound], the negative-log IC50 (pIC50) was 7.20.

The test is the same for the next values; noted with them: Lp-PLA2 human plasma assay (Thio-PAF), pooled human plasma, 30-min pre-incubation at room temperature.
Turning to `CCC12CCCCN1c1cc(OCc3ccc(Oc4cccc(C(F)(F)F)c4)c(C#N)c3)nc(=O)n1C2` (stereo not shown) [Example 77, 5-(((9a-ethyl-1-oxo-6,7,8,9,9a,10-hexahydro-1H-pyrido[1′,2′:3,4]imidazo [1,2-c]pyrimidin-3-yl)oxy)methyl)-2-(3-(trifluoromethyl)phenoxy) benzonitrile], the pIC50 was 8.24.
On to `CC12COCCN1c1cc(OCc3cc(F)c(Oc4ccnc(C(F)(F)F)c4)c(F)c3)nc(=O)n1C2` (stereo not shown) [Example 78, 7-((3,5-difluoro-4-((2-(trifluoromethyl)pyridin-4-yl)oxy)benzyl)oxy)-11a-methyl-3,4,11,11a-tetrahydro-1H,9H-pyrimido[6′,1′:2,3]imidazo [5,1-c][1,4]oxazin-9-one], for which the pIC50 was 8.30.
Regarding `O=c1nc(OCc2cc(F)c(Oc3ccc(F)c(F)c3)c(F)c2)cc2n1C[C@]13CO[C@H](CN21)C3` [Example 136], the negative-log IC50 (pIC50) was 8.42.
Regarding `O=c1nc(OCc2cc(F)c(Oc3ccc(C(F)(F)F)nc3)c(F)c2)cc2n1C[C@@]13CO[C@@H](CN21)C3` [Example 30, (3R,11aS)-7-((3,5-difluoro-4-((6-(trifluoromethyl)pyridin-3-yl)oxy)benzyl)oxy)-3,4-dihydro-1H,9H,11H-3,11a-methanopyrimido[6′,1′:2,3] imidazo[5,1-c][1,4]oxazin-9-one], the negative-log IC50 (pIC50) is 8.17.
For the compound `N#Cc1cc(COc2cc3n(c(=O)n2)C[C@]24CO[C@H](CN32)C4)ccc1Oc1ccc(C(F)(F)F)cc1` [Example 21], the pIC50 was 8.19.
Turning to `O=c1nc(OCc2ccc(F)c(F)c2)cc2n1C[C@]13CO[C@H](CN21)C3` [Example 25, (3S,11aR)-7-((3,4-trifluorobenzyl)oxy)-3,4-dihydro-1H,9H,11H-3,11a-methanopyrimido[6′,1′:2,3] imidazo[5,1-c][1,4]oxazin-9-one], the pIC50 is 7.98.
On to `O=c1nc(OCc2cc(F)c(Oc3cnc(C(F)(F)F)nc3)c(F)c2)cc2n1CC13CCC(CC1)N23` [Example 47, 3-((3,5-difluoro-4-((2-(trifluoromethyl)pyrimidin-5-yl)oxy)benzyl)oxy)-7,8-dihydro-1H,6H,9H-6,8a-ethanopyrrolo[1′,2′:3,4] imidazo[1,2-c]pyrimidin-1-one], for which the pIC50 is 8.03.
Regarding `COc1c(OCc2ccc(F)c(F)c2)nc(=O)n2c1N1CC3CC1(C3)C2` [Example 150, 3-((3,4-difluorobenzyl)oxy)-4-methoxy-7,8-dihydro-1H,6H,9H-7,8a-methanopyrrolo[1′,2′:3,4] imidazo[1,2-c]pyrimidin-1-one], the pIC50 was 8.32.
Turning to `O=c1nc(OCc2ccc(Oc3cccc(C(F)(F)F)c3)c(F)c2)cc2n1CC13CCC(CC1)N23` [Example 126, 3-((3-fluoro-4-(3-(trifluoromethyl)phenoxy)benzyl)oxy)-7,8-dihydro-1H,6H,9H-6,8a-ethanopyrrolo[1′,2′:3,4] imidazo[1,2-c]pyrimidin-1-one], the pIC50 is 8.30.
As to `N#Cc1cc(COc2cc3n(c(=O)n2)CC24CC(CN32)C4)ccc1Oc1ccc(Cl)c(C(F)(F)F)c1` [Example 41], the pIC50 is 8.41.
Turning to `O=c1nc(OCc2cc(F)c(Oc3ccnc(Cl)c3)c(F)c2)cc2n1C[C@]13CO[C@H](CN21)C3` [Example 6, (3S,11aR)-7-((4-((2-chloropyridin-4-yl)oxy)-3,5-difluorobenzyl)oxy)-3,4-dihydro-1H,9H,11H-3,11a-methanopyrimido[6′,1′:2,3] imidazo[5,1-c][1,4]oxazin-9-one], the pIC50 is 8.31.
Still for that read-out and setting: with `CCC12CCCCN1c1cc(OCc3cc(F)c(Oc4ccc(C(F)(F)F)nc4)c(F)c3)nc(=O)n1C2` (stereo not shown) [Example 76, 3-((3,5-difluoro-4-((6-(trifluoromethyl)pyridin-3-yl)oxy)benzyl)oxy)-9a-ethyl-6,7,8,9,9a,10-hexahydro-1H-pyrido[1′,2′:3,4]imidazo [1,2-c]pyrimidin-1-one] the figure was 7.37; with `O=c1nc(OCc2ccc(Oc3ccc(F)c(C(F)(F)F)c3)nc2)cc2n1C[C@]13CO[C@H](CN21)C3` [Example 17, (3S,11aR)-7-((6-(4-fluoro-3-(trifluoromethyl)phenoxy)pyridin-3-yl)methoxy)-3,4-dihydro-1H,9H,11H-3,11a-methanopyrimido[6′,1′:2,3] imidazo[5,1-c][1,4]oxazin-9-one], 7.49; with `O=c1nc(OCc2ccc(Oc3ccc(C(F)(F)F)cc3)c(F)c2)cc2n1CC13CCC(CC1)N23` [Example 130, 3-((3-fluoro-4-(4-(trifluoromethyl)phenoxy)benzyl)oxy)-7,8-dihydro-1H,6H,9H-6,8a-ethanopyrrolo[1′,2′:3,4] imidazo[1,2-c]pyrimidin-1-one], 8.32.
Turning to `CCC12CCCN1c1cc(OCc3cc(F)c(Oc4ccnc(C(F)(F)F)c4)c(F)c3)nc(=O)n1C2` (stereo not shown) [Example 63, 3-((3,5-difluoro-4-((2-(trifluoromethyl)pyridin-4-yl)oxy)benzyl)oxy)-8a-ethyl-7,8,8a,9-tetrahydro-1H,6H-pyrrolo[1′,2′:3,4]imidazo [1,2-c]pyrimidin-1-one], the pIC50 is 8.06.
Take `N#Cc1cc(COc2cc3n(c(=O)n2)C[C@@]24CO[C@@H](CN32)C4)ccc1Oc1ccnc(C(F)(F)F)c1` [Example 110, 5-((((3R,11aS)-9-oxo-3,4-dihydro-1H,9H,11H-3,11a-methanopyrimido[6′,1′:2,3]imidazo[5,1-c][1,4]oxazin-7-yl)oxy)methyl)-2-((2-(trifluoromethyl)pyridin-4-yl)oxy)benzonitrile]: the pIC50 was 8.28.
Regarding `CC12COCCN1c1cc(OCc3cc(F)c(Oc4ccc(Cl)c(C(F)(F)F)c4)c(F)c3)nc(=O)n1C2` (stereo not shown) [Example 82, 7-((4-(4-chloro-3-(trifluoromethyl)phenoxy)-3,5-difluorobenzyl)oxy)-11a-methyl-3,4,11,11a-tetrahydro-1H,9H-pyrimido[6′,1′:2,3]imidazo [5,1-c][1,4]oxazin-9-one], the pIC50 was 8.70.
Same read-out and setting: with `O=c1nc(OCc2ccc(Oc3ccc(Cl)c(C(F)(F)F)c3)c(F)c2)cc2n1CC13CCC(CC1)N23` [Example 127, 3-((3-fluoro-4-(4-chloro-3-(trifluoromethyl)phenoxy)benzyl)oxy)-7,8-dihydro-1H,6H,9H-6,8a-ethanopyrrolo[1′,2′:3,4] imidazo[1,2-c]pyrimidin-1-one] the figure was 8.59.
Turning to `COc1c(OCc2cc(F)c(F)c(F)c2)nc(=O)n2c1N1CC3CC1(C3)C2` [Example 151], the negative-log IC50 (pIC50) was 8.24.
Take `CC(C)c1c(OCc2cc(F)c(Oc3ccnc(C(F)(F)F)c3)c(F)c2)nc(=O)n2c1N1C[C@@H]3C[C@]1(CO3)C2` [Example 107, (3S,11aR)-7-((3,5-difluoro-4-((2-(trifluoromethyl)pyridin-4-yl)oxy)benzyl)oxy)-6-isopropyl-3,4-dihydro-1H,9H,11H-3,11a-methanopyrimido[6′,1′:2,3] imidazo[5,1-c][1,4]oxazin-9-one]: the negative-log IC50 (pIC50) was 8.02.
Turning to `N#Cc1cc(COc2cc3n(c(=O)n2)C[C@]24CO[C@H](CN32)C4)ccc1Oc1cccc(C(F)(F)F)c1` [Example 19, 5-((((3S,11aR)-9-oxo-3,4-dihydro-1H,9H,11H-3,11a-methanopyrimido[6′,1′:2,3]imidazo[5,1-c][1,4]oxazin-7-yl)oxy)methyl)-2-(3-(trifluoromethyl)phenoxy) benzonitrile], the negative logarithm of the IC50 (pIC50) was 8.41.
Still for that read-out and setting: then `CC12COCCN1c1cc(OCc3ccc(Oc4cc(C#N)cc(C(F)(F)F)c4)c(F)c3)nc(=O)n1C2` (stereo not shown) [Example 83], with 8.31; and `O=c1nc(OCc2cc(F)c(Oc3ccnc(C(F)(F)F)c3)c(F)c2)c(Cl)c2n1C[C@]13CO[C@H](CN21)C3` [Example 91, (3S,11aR)-7-((3,5-difluoro-4-((2-(trifluoromethyl)pyridin-4-yl)oxy)benzyl)oxy)-6-chloro-3,4-dihydro-1H,9H,11H-3,11a-methanopyrimido[6′,1′:2,3] imidazo[5,1-c][1,4]oxazin-9-one], with 8.32.
Take `O=c1nc(OCc2ccc(Oc3ccc(F)c(C(F)(F)F)c3)nc2)cc2n1CC13CCC(CC1)N23` [Example 49, 3-((6-(4-fluoro-3-(trifluoromethyl)phenoxy)pyridin-3-yl)methoxy)-7,8-dihydro-1H,6H,9H-6,8a-ethanopyrrolo[1′,2′:3,4] imidazo[1,2-c]pyrimidin-1-one]: the pIC50 was 6.77.
For the compound `O=c1nc(OCCc2ccc(Oc3ccnc(C(F)(F)F)c3)c(F)c2)cc2n1CC13CC(CN21)C3` [Example 190, 3-(3-fluoro-4-((2-(trifluoromethyl)pyridin-4-yl)oxy)phenethoxy)-7,8-dihydro-1H,6H,9H-7,8a-methanopyrrolo[1′,2′:3,4]imidazo[1,2-c] pyrimidin-1-one], the negative logarithm of the IC50 (pIC50) was 8.23.
Same read-out and setting: then `O=c1nc(OCc2ccc(Oc3ccnc(C(F)(F)F)c3)c(F)c2)cc2n1C[C@@]13C[C@@H](CN21)N(C1CCC1)C3` [Example 177, (3S,11aS)-2-cyclobutyl-7-((3-fluoro-4-((2-(trifluoromethyl)pyridin-4-yl)oxy)benzyl)oxy)-1,2,3,4-tetrahydro-9H,11H-3,11a-methano-pyrazino[l′,2′:3,4]imidazo[1,2-c]pyrimidin-9-one], with 8.26; and `O=c1nc(OCc2cccc(F)c2F)cc2n1CC13CC(CN21)C3` [Example 45, 3-((2,3-difluorobenzyl)oxy)-7,8-dihydro-1H,6H,9H-7,8a-methanopyrrolo[1′,2′:3,4] imidazo[1,2-c]pyrimidin-1-one], with 7.14.

For orientation: pIC50 means the IC50 on a negative log10 scale, so that one unit is a factor of ten.
